Values quoted from earlier work as cited in article PMC12181400, “Leveraging viral genome sequences and machine learning models for identification of potentially selective antiviral agents” (Communications Chemistry, 2025).
Counter-ions that a name gives are not always drawn. Like-named read-outs stand apart in the source and are kept apart here.

Key:
Conditions in all cases: cited from earlier work
[1] = system: cell viability (tox21-car-agonist-p1)
[2] = system: cell viability (tox21-are-bla-p1)
[3] = system: cell viability (tox21-ar-mda-kb2-luc-antagonist-p2)
[4] = system: cell viability (tox21-ap1-agonist-p1)
[5] = system: cell viability (tox21-ar-mda-kb2-luc-agonist-p3)
[6] = system: cell viability (tox21-car-antagonist-p1)
[7] = curve rank −9 to 9, 0 = inactive, ref NCATS Tox21 public data browser

NS(=O)(=O)c1cc2c(cc1C(F)(F)F)NC(Cc1ccccc1)NS2(=O)=O (centres unmarked) [Bendroflumethiazide]
0: tox21-car-agonist-p1-viability (curve rank) [1] | tox21-are-bla-p1-viability (curve rank) [2] | tox21-ar-mda-kb2-luc-antagonist-p2-viability (curve rank) [3] | tox21-ap1-agonist-p1-viability (curve rank) [4] | tox21-ar-mda-kb2-luc-agonist-p3-viability (curve rank) [5] | tox21-car-antagonist-p1-viability (curve rank) [6]

Cc1cc(C)cc(OCC2CNC(=O)O2)c1 (centres unmarked) [Metaxalone]
0: tox21-car-agonist-p1-viability (curve rank) [1] | tox21-are-bla-p1-viability (curve rank) [2] | tox21-ar-mda-kb2-luc-antagonist-p2-viability (curve rank) [3] | tox21-ap1-agonist-p1-viability (curve rank) [4] | tox21-ar-mda-kb2-luc-agonist-p3-viability (curve rank) [5] | tox21-car-antagonist-p1-viability (curve rank) [6]

Nc1ccc(C(=O)Oc2ccccc2)c(O)c1 [Phenyl 4-aminosalicylate]
0: tox21-car-agonist-p1-viability (curve rank) [1, 7] | tox21-are-bla-p1-viability (curve rank) [2, 7] | tox21-ar-mda-kb2-luc-antagonist-p2-viability (curve rank) [3, 7] | tox21-ap1-agonist-p1-viability (curve rank) [4, 7] | tox21-ar-mda-kb2-luc-agonist-p3-viability (curve rank) [5, 7] | tox21-car-antagonist-p1-viability (curve rank) [6, 7]

CCN(Cc1ccncc1)C(=O)C(CO)c1ccccc1 (centres unmarked) [Tropicamide]
0: tox21-car-agonist-p1-viability (curve rank) [1, 7] | tox21-are-bla-p1-viability (curve rank) [2, 7] | tox21-ap1-agonist-p1-viability (curve rank) [4, 7] | tox21-car-antagonist-p1-viability (curve rank) [6, 7]

Cc1cc(O)ccc1Cl [4-Chloro-3-methylphenol]
0: tox21-car-agonist-p1-viability (curve rank) [1, 7] | tox21-are-bla-p1-viability (curve rank) [2, 7] | tox21-ar-mda-kb2-luc-antagonist-p2-viability (curve rank) [3, 7] | tox21-ap1-agonist-p1-viability (curve rank) [4, 7] | tox21-ar-mda-kb2-luc-agonist-p3-viability (curve rank) [5, 7] | tox21-car-antagonist-p1-viability (curve rank) [6, 7]

CC[C@]12CCCN3CCc4c(n(c5ccccc45)[C@@](O)(C(=O)OC)C1)[C@@H]32 [Vincamine]
0: tox21-car-agonist-p1-viability (curve rank) [1, 7] | tox21-are-bla-p1-viability (curve rank) [2, 7] | tox21-ar-mda-kb2-luc-antagonist-p2-viability (curve rank) [3, 7] | tox21-ap1-agonist-p1-viability (curve rank) [4, 7] | tox21-ar-mda-kb2-luc-agonist-p3-viability (curve rank) [5, 7] | tox21-car-antagonist-p1-viability (curve rank) [6, 7]

O=C(CCBr)N1CCN(C(=O)CCBr)CC1 [Pipobroman]
0: tox21-car-agonist-p1-viability (curve rank) [1] | tox21-are-bla-p1-viability (curve rank) [2] | tox21-ar-mda-kb2-luc-antagonist-p2-viability (curve rank) [3] | tox21-ap1-agonist-p1-viability (curve rank) [4] | tox21-ar-mda-kb2-luc-agonist-p3-viability (curve rank) [5] | tox21-car-antagonist-p1-viability (curve rank) [6]

CN1C(=O)CC[C@H]1c1cccnc1 [Cotinine]
0: tox21-car-agonist-p1-viability (curve rank) [1] | tox21-are-bla-p1-viability (curve rank) [2] | tox21-ar-mda-kb2-luc-antagonist-p2-viability (curve rank) [3] | tox21-ap1-agonist-p1-viability (curve rank) [4] | tox21-ar-mda-kb2-luc-agonist-p3-viability (curve rank) [5] | tox21-car-antagonist-p1-viability (curve rank) [6]

O=C(c1ccccc1)c1ccc2n1CCC2C(=O)O (centres unmarked) [Ketorolac]
0: tox21-car-agonist-p1-viability (curve rank) [1] | tox21-are-bla-p1-viability (curve rank) [2] | tox21-ar-mda-kb2-luc-antagonist-p2-viability (curve rank) [3] | tox21-ap1-agonist-p1-viability (curve rank) [4] | tox21-ar-mda-kb2-luc-agonist-p3-viability (curve rank) [5] | tox21-car-antagonist-p1-viability (curve rank) [6]

CCC1(C2=NCCN2)Cc2ccccc2O1 (centres unmarked) [Efaroxan]
0: tox21-car-agonist-p1-viability (curve rank) [1, 7] | tox21-are-bla-p1-viability (curve rank) [2, 7] | tox21-ar-mda-kb2-luc-antagonist-p2-viability (curve rank) [3, 7] | tox21-ap1-agonist-p1-viability (curve rank) [4, 7] | tox21-ar-mda-kb2-luc-agonist-p3-viability (curve rank) [5, 7] | tox21-car-antagonist-p1-viability (curve rank) [6, 7]

CC(C)NCC(O)COc1ccc(COCCOC(C)C)cc1 (centres unmarked) [Bisoprolol fumarate]
0: tox21-car-agonist-p1-viability (curve rank) [1] | tox21-are-bla-p1-viability (curve rank) [2] | tox21-ar-mda-kb2-luc-antagonist-p2-viability (curve rank) [3] | tox21-ap1-agonist-p1-viability (curve rank) [4] | tox21-ar-mda-kb2-luc-agonist-p3-viability (curve rank) [5] | tox21-car-antagonist-p1-viability (curve rank) [6]

CC(O)Cn1cnc2c1c(=O)n(C)c(=O)n2C (centres unmarked) [Proxyphylline]
0: tox21-car-agonist-p1-viability (curve rank) [1] | tox21-are-bla-p1-viability (curve rank) [2] | tox21-ar-mda-kb2-luc-antagonist-p2-viability (curve rank) [3] | tox21-ap1-agonist-p1-viability (curve rank) [4] | tox21-ar-mda-kb2-luc-agonist-p3-viability (curve rank) [5] | tox21-car-antagonist-p1-viability (curve rank) [6]

O=C(O)COc1ccccc1 [Phenoxyacetic acid]
0: tox21-car-agonist-p1-viability (curve rank) [1, 7] | tox21-are-bla-p1-viability (curve rank) [2, 7] | tox21-ar-mda-kb2-luc-antagonist-p2-viability (curve rank) [3, 7] | tox21-ap1-agonist-p1-viability (curve rank) [4, 7] | tox21-ar-mda-kb2-luc-agonist-p3-viability (curve rank) [5, 7] | tox21-car-antagonist-p1-viability (curve rank) [6, 7]

OC(c1ccccc1)(c1ccccc1)C1CCNCC1 [Azacyclonol]
0: tox21-car-agonist-p1-viability (curve rank) [1, 7] | tox21-are-bla-p1-viability (curve rank) [2, 7] | tox21-ar-mda-kb2-luc-antagonist-p2-viability (curve rank) [3, 7] | tox21-ap1-agonist-p1-viability (curve rank) [4, 7] | tox21-ar-mda-kb2-luc-agonist-p3-viability (curve rank) [5, 7] | tox21-car-antagonist-p1-viability (curve rank) [6, 7]

CCOC(=O)[C@H](CCc1ccccc1)N[C@@H](C)C(=O)N1CCC[C@H]1C(=O)O [Enalapril maleate]
0: tox21-car-agonist-p1-viability (curve rank) [1] | tox21-are-bla-p1-viability (curve rank) [2] | tox21-ar-mda-kb2-luc-antagonist-p2-viability (curve rank) [3] | tox21-ap1-agonist-p1-viability (curve rank) [4] | tox21-ar-mda-kb2-luc-agonist-p3-viability (curve rank) [5] | tox21-car-antagonist-p1-viability (curve rank) [6]

O=C1c2ccccc2S(=O)(=O)N1CCCCN1CCN(c2ncccn2)CC1 [Ipsapirone]
0: tox21-car-agonist-p1-viability (curve rank) [1] | tox21-are-bla-p1-viability (curve rank) [2] | tox21-ar-mda-kb2-luc-antagonist-p2-viability (curve rank) [3] | tox21-ap1-agonist-p1-viability (curve rank) [4] | tox21-ar-mda-kb2-luc-agonist-p3-viability (curve rank) [5] | tox21-car-antagonist-p1-viability (curve rank) [6]

NP(N)(=O)NC(=O)c1ccc(F)cc1 [Flurofamide]
0: tox21-car-agonist-p1-viability (curve rank) [1] | tox21-are-bla-p1-viability (curve rank) [2] | tox21-ar-mda-kb2-luc-antagonist-p2-viability (curve rank) [3] | tox21-ap1-agonist-p1-viability (curve rank) [4] | tox21-ar-mda-kb2-luc-agonist-p3-viability (curve rank) [5] | tox21-car-antagonist-p1-viability (curve rank) [6]

FC(F)(F)c1ccccc1-n1ccnc1 [1-[2-(Trifluoromethyl)phenyl]-1H-imidazole]
0: tox21-car-agonist-p1-viability (curve rank) [1, 7] | tox21-are-bla-p1-viability (curve rank) [2, 7] | tox21-ar-mda-kb2-luc-antagonist-p2-viability (curve rank) [3, 7] | tox21-ap1-agonist-p1-viability (curve rank) [4, 7] | tox21-ar-mda-kb2-luc-agonist-p3-viability (curve rank) [5, 7] | tox21-car-antagonist-p1-viability (curve rank) [6, 7]

O=C(O)c1cc(=O)c2ccccc2o1 [Chromocarb]
0: tox21-car-agonist-p1-viability (curve rank) [1, 7] | tox21-are-bla-p1-viability (curve rank) [2, 7] | tox21-ar-mda-kb2-luc-antagonist-p2-viability (curve rank) [3, 7] | tox21-ap1-agonist-p1-viability (curve rank) [4, 7] | tox21-ar-mda-kb2-luc-agonist-p3-viability (curve rank) [5, 7] | tox21-car-antagonist-p1-viability (curve rank) [6, 7]

CSc1ccc(C(=O)c2[nH]c(=O)[nH]c2C)cc1 [Enoximone]
0: tox21-car-agonist-p1-viability (curve rank) [1] | tox21-are-bla-p1-viability (curve rank) [2] | tox21-ar-mda-kb2-luc-antagonist-p2-viability (curve rank) [3] | tox21-ap1-agonist-p1-viability (curve rank) [4] | tox21-ar-mda-kb2-luc-agonist-p3-viability (curve rank) [5] | tox21-car-antagonist-p1-viability (curve rank) [6]

CCC1(c2cccc(O)c2)CCCCN(C)C1 (centres unmarked) [Meptazinol hydrochloride]
0: tox21-car-agonist-p1-viability (curve rank) [1, 7] | tox21-are-bla-p1-viability (curve rank) [2, 7] | tox21-ar-mda-kb2-luc-antagonist-p2-viability (curve rank) [3, 7] | tox21-ap1-agonist-p1-viability (curve rank) [4, 7] | tox21-ar-mda-kb2-luc-agonist-p3-viability (curve rank) [5, 7] | tox21-car-antagonist-p1-viability (curve rank) [6, 7]

CCOC(=O)c1cncn1[C@H](C)c1ccccc1 [Etomidate]
0: tox21-car-agonist-p1-viability (curve rank) [1, 7] | tox21-are-bla-p1-viability (curve rank) [2, 7] | tox21-ar-mda-kb2-luc-antagonist-p2-viability (curve rank) [3, 7] | tox21-ap1-agonist-p1-viability (curve rank) [4, 7] | tox21-ar-mda-kb2-luc-agonist-p3-viability (curve rank) [5, 7] | tox21-car-antagonist-p1-viability (curve rank) [6, 7]

COc1ccc(OC)c(C(O)CNC(=O)CN)c1 (centres unmarked) [Midodrine hydrochloride]
0: tox21-car-agonist-p1-viability (curve rank) [1] | tox21-are-bla-p1-viability (curve rank) [2] | tox21-ar-mda-kb2-luc-antagonist-p2-viability (curve rank) [3] | tox21-ap1-agonist-p1-viability (curve rank) [4] | tox21-ar-mda-kb2-luc-agonist-p3-viability (curve rank) [5] | tox21-car-antagonist-p1-viability (curve rank) [6]

CCC(C)(CN(C)C)OC(=O)c1ccccc1.Cl (centres unmarked) [Amylocaine hydrochloride]
0: tox21-car-antagonist-p1-viability (curve rank) [6, 7]
